Data taken from the NIST ThermoML archive (doi:10.1007/s10765-008-0497-7).

Conditions: Liquid

CCn1cc[n+](C)c1.O=S(=O)([N-]S(=O)(=O)C(F)(F)F)C(F)(F)F
viscosity [mPa·s]
Conditions	298.15 K	323.15 K	343.15 K
100 kPa, Moving piston method	34.4	15.6	9.6
101.33 kPa, Cone and plate viscometry	34.1	–	–
101.33 kPa, Moving piston method	34.29	15.6	9.55
2820 kPa, Moving piston method	35	16.1	9.8
4190 kPa, Moving piston method	35.3	16.4	9.9
7360 kPa, Moving piston method	36.2	16.9	10.2
35560 kPa, Moving piston method	46.8	22	12.6
48760 kPa, Moving piston method	53.3	24.9	13.8
69300 kPa, Moving piston method	65	30.8	16
85200 kPa, Moving piston method	79.4	36.7	17.7
96500 kPa, Moving piston method	90	40.1	19.2
110550 kPa, Moving piston method	108.6	44.8	21.2
121530 kPa, Moving piston method	–	49.5	–
122430 kPa, Moving piston method	131.5	–	–
125530 kPa, Moving piston method	–	–	23.4

CCCCCCCCCCn1cc[n+](C)c1.O=S(=O)([N-]S(=O)(=O)C(F)(F)F)C(F)(F)F
viscosity [mPa·s]
Conditions	298.15 K	323.15 K	343.15 K
100 kPa, Moving piston method	108.2	36.2	18.15
101.33 kPa, Cone and plate viscometry	111.2	–	–
101.33 kPa, Moving piston method	108.2	36.3	18.2
2950 kPa, Moving piston method	111.5	37.5	18.55
4270 kPa, Moving piston method	112.8	38.2	18.75
6900 kPa, Moving piston method	117.6	39.2	19.3
34600 kPa, Moving piston method	167.5	53.6	25.76
47960 kPa, Moving piston method	199	61.8	29.15
68870 kPa, Moving piston method	257	76	35.72
83290 kPa, Moving piston method	301.1	85.9	40.47
93030 kPa, Moving piston method	336.7	94.3	44.56
109800 kPa, Moving piston method	402.7	110.8	51.26
122570 kPa, Moving piston method	459.8	122.6	56.74

CCCCCCn1cc[n+](C)c1.F[P-](F)(F)(F)(F)F [1-hexyl-3-methylimidazolium hexafluorophosphate]
viscosity [mPa·s]
Conditions	298.15 K	323.15 K	343.15 K
100 kPa, Moving piston method	481	121.4	48.1
101.33 kPa, Cone and plate viscometry	489.5	–	–
101.33 kPa, Moving piston method	481.4	121.4	48.1
2990 kPa, Moving piston method	523	–	–
4000 kPa, Moving piston method	530	127.1	50.3
7000 kPa, Moving piston method	556	–	–
7600 kPa, Moving piston method	–	132.4	52
22000 kPa, Moving piston method	701	–	–
25800 kPa, Moving piston method	–	164	62.6
35000 kPa, Moving piston method	833	182.6	68.6
42100 kPa, Moving piston method	920	–	–
50000 kPa, Moving piston method	1023	–	–
50600 kPa, Moving piston method	–	218.9	80.5
60300 kPa, Moving piston method	1176	241.7	88.1
76000 kPa, Moving piston method	–	280.8	102.5
93000 kPa, Moving piston method	–	334.2	118.7
101000 kPa, Moving piston method	–	364.2	127.1
126000 kPa, Moving piston method	–	483.1	157.8

CCCCCCn1cc[n+](C)c1.F[B-](F)(F)F [1-hexyl-3-methylimidazolium tetrafluoroborate]
viscosity [mPa·s]
Conditions	Cone and plate viscometry	Moving piston method
298.15 K, 100 kPa	–	202
298.15 K, 101.33 kPa	210.4	202.4
298.15 K, 2640 kPa	–	209
298.15 K, 4290 kPa	–	213
298.15 K, 6950 kPa	–	215
298.15 K, 34590 kPa	–	299
298.15 K, 48400 kPa	–	387
298.15 K, 68140 kPa	–	478
298.15 K, 82970 kPa	–	532
298.15 K, 96820 kPa	–	621
298.15 K, 108550 kPa	–	743
298.15 K, 117850 kPa	–	819
323.15 K, 100 kPa	–	58.5
323.15 K, 101.33 kPa	–	58.5
323.15 K, 2600 kPa	–	59.7
323.15 K, 4130 kPa	–	61
323.15 K, 6850 kPa	–	62
323.15 K, 34520 kPa	–	79.9
323.15 K, 48180 kPa	–	91.1
323.15 K, 68990 kPa	–	108.2
323.15 K, 82710 kPa	–	121.8
323.15 K, 96550 kPa	–	136
323.15 K, 110120 kPa	–	152.4
323.15 K, 121810 kPa	–	165
343.15 K, 100 kPa	–	27
343.15 K, 101.33 kPa	–	27
343.15 K, 3100 kPa	–	27.6
343.15 K, 4100 kPa	–	27.5
343.15 K, 7100 kPa	–	28
343.15 K, 35100 kPa	–	35.2
343.15 K, 48340 kPa	–	39.2
343.15 K, 68140 kPa	–	45
343.15 K, 83080 kPa	–	49.9
343.15 K, 96550 kPa	–	55.1
343.15 K, 110120 kPa	–	60.8
343.15 K, 121810 kPa	–	65

CCCCn1cc[n+](C)c1.F[P-](F)(F)(F)(F)F [1-butyl-3-methylimidazolium hexafluorophosphate]
298.15 K, Moving piston method
Conditions	viscosity [mPa·s]
100 kPa	270.9
3400 kPa	289.7
6900 kPa	305.7
12100 kPa	329.2
17200 kPa	353.7
24700 kPa	396.3
25700 kPa	398.2
41400 kPa	473.8
50600 kPa	543.4

CCCCCC[n+]1ccn(C)c1.O=S(=O)([N-]S(=O)(=O)C(F)(F)F)C(F)(F)F
viscosity [mPa·s]
Conditions	298.15 K	323.15 K	343.15 K
100 kPa, Moving piston method	70.96	24.9	14.07
101.33 kPa, Cone and plate viscometry	71.5	–	–
101.33 kPa, Moving piston method	71	24.9	14.1
2990 kPa, Moving piston method	71.04	25.81	14.12
4000 kPa, Moving piston method	71.38	25.98	14.22
7000 kPa, Moving piston method	73.71	26.87	14.6
35000 kPa, Moving piston method	103.4	35.96	18.62
50000 kPa, Moving piston method	122.2	41.57	21.1
70000 kPa, Moving piston method	152.2	50.43	25.17
83000 kPa, Moving piston method	173.2	56.96	28.12
93000 kPa, Moving piston method	196.3	62.11	30.42
110000 kPa, Moving piston method	237.6	71.6	34.65
124000 kPa, Moving piston method	275.7	80.46	38.34
